The record followed here is US20260257992A1, “AGONISTS OF SMALL HETERODIMER PARTNER FOR CANCER THERAPY” (THE BOARD OF TRUSTEES OF THE UNIVERSITY OF ILLINOIS, priority 2023, published 2026).

The test system of one data set is BMDM viability. Kind of data set: Resazurin cell viability assay in BMDMs. In kind it is cell-based, mouse. Particulars: increasing doses up to 100 μM. The protocol: In order to better assess the potential cellular toxicity of DSHN-OMe, we treated BMDMs with increasing doses and measured their ability to reduce resazurin to resorufin (similar to the MTT viability assay).
Resazurin cell viability assay. 20,000 cells were seeded into 96 well f-bottom, black plates (Corning Costar) and cell viability was measured using 100 μL resazurin per well at 0.3 mg/mL (Acros Organics). The fluorescence signal was quantified by plate reader (560 nm excitation/590 nm emission) at 2-3 h.

A further data set relates to Treg expansion. Kind of data set: Treg expansion in co-culture with compound-treated BMDMs (macrophages). In kind it is cell-based, mouse. The arrangement: key to Treg expansion macrophages: ✓: using strict cutoffs with respect to DSHN for passing each metric; X: using strict cutoffs with respect to DSHN for passing each metric. Particulars: for Treg expansion after BMDM pretreatment and washout: BMDMs pretreated, washed before co-culture with T cells; for Treg expansion, co-culture with treated BMDMs: dose response. As for the experimental part: Preparation of Bone Marrow-Derived Macrophages (BMDMs) and Dendritic Cells. Bone marrow cells were collected from mouse tibia and femur. Cells were passed through 70-micron cell strainer and subsequently cultured 10 mL complete RPMI media supplemented with 20 ng/mL of recombinant murine M-CSF (576406; BioLegend, 315-02 PeproTech). On day 3, additional 5 ml of the complete media was added. On day 7, media was replaced. BMDMs were harvested on day 10 using cell stripper solution for further experiments. Dendritic cells were isolated from the spleens of wildtype, using mouse CD11c UltraPure MicroBeads (130-125-835; Miltenyi Biotec) according to the manufacturer's instructions) and cultured in RPMI medium supplemented with 10% heat-inactivated charcoal-stripped FBS, 50 μM β-mercaptoethanol, 1% sodium pyruvate, 1% nonessential amino acids, % penicillin/streptomycin, and 1% Glutamax.
In vitro Treg expansion assays. T cells were cultured in RPMI medium supplemented with 10% heat-inactivated charcoal-stripped FBS, 50 μM β-mercaptoethanol (Gibco), 1% sodium pyruvate, 1% nonessential amino acids, % penicillin/streptomycin, and 1% Glutamax (Gibco). Naïve CD4^+ T cells were isolated from the spleens of wildtype and OT-II, using Naive CD4^+ T Cell Isolation Kit (Miltenyi Biotec according to the manufacturer's instructions). T cells were labeled with the vital dye CFSE (BioLegend) or Cell Trace Violet (ThermoFisher) according to the manufacturer's instructions. For wildtype Treg expansion in presence of antigen presenting cells, naïve CD4^+ T cells were co-cultured with APC at indicated ratio in the presence of 0.5 μg/mL (anti-CD3 BioLegend), 0.5 ng/mL TGFβ (BioLegend) and 0.5 ng/ml IL-2 (BioLegend) for 72 hr at 37° C. For OT-II Treg expansion, OTII naïve CD4^+ T cells from OT-II mice were activated by antigen presentation by culturing BMDMs were primed with 10 μg/mL OVA323-339 (Bachem) and 0.5 μg/mL LPS (Sigma). naïve CD4+ T cells from OTII mice were co-cultured with primed APC at indicated ratio for 72 hrs. After 72 hrs of culture, cells were transferred into V-bottom plates (BD), pelleted by centrifugation and incubated with antibody staining mix containing Ghost Dye™ Red 780 viability dye diluted in PBS for 15 minutes at 4° C. Cell surface antigens were stained for 15 minutes at 4° C. with an antibody staining mix containing Ghost Dye™ Red 780 viability dye diluted in PBS. Cells were fixed and permeabilized with BD Cytofix/Cytoperm™ for 20 minutes at 4° C. Antibodies against intracellular antigens were diluted in 1×BD Perm/Wash™ buffer and cells were stained for 30 minutes at 4° C. Cytometry data were acquired on a LSRII, Fortessa, Symphony A1 (Becton Dickinson, NJ). Foxp3 induction was assessed by expression of FOXP3.

In another data set the test system is RAW 264.7 cells. As to the kind of experiment: Compound uptake assay (LC-MS/MS). The format is in vitro ADME. Particulars: for Intracellular compound concentration, 4 h / Intracellular compound concentration, 8 h / Intracellular compound concentration, 24 h: 50 μM. The protocol: Conversion of a carboxylic acid to an ester is often associated with better cellular uptake. Therefore, we explored whether the kinetics of uptake differed between the two compounds, using RAW 264.7 cells as a model for myeloid immune cells. RAW 264.7 cells were treated with 50 μM of DSHN or DSHN-OME for 4, 8 or 24 h. At the appropriate time-point cells were washed and subjected to LC-MS/MS to quantify intracellular compound concentration. […] At 8 h, 12.6 nM DSHN was detected.
Compound Uptake Assay. Cellular uptake of DSHN and DSHN-OMe was determined in RAW 264.7 cells cultured in 60×15 mm tissue culture dishes. Cells were treated with vehicle (0.1% DMSO), 50 μM DSHN or 50 μM DSHN-OMe for 4 h, 8 h, or 24 h. After incubation, cells were harvested, washed with PBS and cell pellets were incubated at −80° C. freezer. Next, cell pellets were resuspended in 200 μL 70:30 MeOH:H2O and sonicated to lyse cells. Debris from lysed cell suspension was removed by centrifugation. Resulting supernatant was analyzed by LC-MS/MS.

Consider `CCN(CC)S(=O)(=O)c1cccc2cc(C(=O)OC)c(O)cc12` [DSHN-OMe, Methyl 5-(N,N-diethylsulfamoyl)-3-hydroxy-2-naphthoate], for which the “BMDM viability (resazurin reduction)” value in the data set with BMDM viability was “no significant difference was observed in viability up to 100 μM”. Also, in the data set with Treg expansion, the “Treg expansion after BMDM pretreatment and washout” value is “decreased Treg expansion”; the “Treg expansion, co-culture with treated BMDMs” value is “elicited a reduction in Treg expansion with a lower dose, and had a larger biological maximum”. Also, the Treg expansion macrophages entry in the data set on Treg expansion (pass/fail with respect to DSHN) is listed as “✓”. Besides, in the data set on RAW 264.7 cells, the “Difference in intracellular concentration, DSHN-OMe versus DSHN” value was > 2 log; the “Intracellular compound concentration, 4 h” value is given as 7,481 nM; the “Intracellular compound concentration, 8 h” value is on record as 19,279 nM; the “Intracellular compound concentration, 24 h” value was 11,089 nM.

With `CCN(CC)S(=O)(=O)c1cccc2cc(C(=O)O)c(O)cc12` [DSHN, reference compound], the “BMDM viability (resazurin reduction)” value in the data set on BMDM viability is “no significant difference was observed in viability up to 100 μM”. Besides, in the data set on Treg expansion, the “Treg expansion after BMDM pretreatment and washout” value was “not effective at reducing Treg expansion”; the “Treg expansion, co-culture with treated BMDMs” value is “reduced subsequent Treg expansion in a dose related manner”. Besides, in the data set with RAW 264.7 cells, the “Intracellular compound concentration, 4 h” value is “below detection limits”; the “Intracellular compound concentration, 8 h” value was found to be 12.6 nM; the “Intracellular compound concentration, 24 h” value was “no intracellular DSHN was detected”.
